Test results published in EPA's ToxValDB 9.5 (doi:10.2903/j.efsa.2010.1653).

What was measured:
[1] = tested on: Typhlodromus pyri; assay: LR50; higher = less toxic; conditions: acute; duration: 7 days; mortality
[2] = tested on: Oncorhynchus mykiss
[3] = tested on: Apis mellifera; conditions: acute; duration: 48 hours; oral; unspecified; mortality
[4] = tested on: Tagia sp.; conditions: acute; duration: 14 days; mortality
[5] = tested on: Canidae; conditions: chronic; duration: 1 years; oral; Dog Other; body weight
[6] = tested on: Bibionidae; conditions: chronic/long-term; duration: 28 days; development
[7] = tested on: Oryctolagus sp.; conditions: developmental; development
[8] = tested on: Daphnia magna; conditions: chronic/long-term; duration: 21 days; reproduction
[9] = tested on: Coturnix japonica; conditions: acute; oral; mortality
[10] = tested on: Colinus virginianus
[11] = tested on: Typhlodromus pyri; conditions: chronic/long-term; duration: 14 days; reproduction
[12] = tested on: Rattus norvegicus
[13] = reproduction developmental, reproduction

Which LR50 [1] does the source give for Cc1cc(=O)[nH]o1 [Hymexazol] here?
The LR50 was 1110 g/ha.

What about the LC50 ([2]; acute, duration: 96 hours, mortality) of the same compound?
The LC50 was > 100 µg/mL.

What about the NOEC ([2]; chronic/long-term, duration: 28 days, body weight) of the same compound?
Its NOEC is > 100 mg/L.

And the LD50 [3]?
The LD50 was > 100 µg/piece.

What about the LC50 [4] of the same compound?
The LC50 was 282 mg/kg.

And the NOAEL [5]?
Its NOAEL is 17 mg/kg-day.

And the NOEC [6]?
The NOEC was 1.6 mg/L.

What about the NOAEL [7] of the same compound?
Its NOAEL is 50 mg/kg-day.

And the NOEC [8]?
The NOEC was 0.8 mg/L.

And the LD50 [9]?
Its LD50 is > 1080 mg/kg.

What about the LC50 ([10]; acute, oral, diet, mortality) of the same compound?
The LC50 was > 1470 mg/kg-day.

And the NOEC [10, 13]?
The NOEC was 86.5 mg/kg-day.

What about the NOEC [11] of the same compound?
The NOEC was 400 g/ha.

What about the LD50 ([12]; acute, oral, mortality) of the same compound?
The LD50 was 1390 mg/kg.

And the NOEL [12, 13]?
The NOEL was 37 mg/kg-day.
